Reference: patent US20210388260A1, “USE OF A SUBSTITUTED OR UNSUBSTITUTED POLYCYCLIC AROMATIC HYDROCARBON COMPOUND FOR HIGH-RESOLUTION MICROSCOPY” (Max-Planck-Gesellschaft zur Förderung der Wissenschaften e.V, priority 2018, published 2021)
In brackets after ≈: the same amount, converted by molar mass.

Columns and labels:
[1] = Absorption and emission spectra, molar extinction coefficient, fluorescence quantum yield; type: physicochemical; details: for fluorescence quantum yield / maximum absorption wavelength / molar extinction coefficient ε: in toluene (10^−5 mol/L); for molar extinction coefficient ε: at maximum absorption wavelength; for width of absorption and emission spectra: spectra of FIGS. 3a-d, 4a-d
Excerpt: The maximum absorption wavelength in toluene (10^−5 mol/L) was 611 nm (molar extinction coefficient ε=2.03×10^5 M^−1 cm^−1) with a high fluorescence quantum yield of 0.85.
The maximum absorption wavelength in toluene (10^−5 mol/L) was 609 nm (molar extinction coefficient c=2.83×10^5 M^−1 cm^−1) with a high fluorescence quantum yield of 0.85.
The maximum absorption wavelength in toluene (10^−5 mol/L) was 647 nm (molar extinction coefficient ε=61511 M^−1 cm^−1) with a fluorescence quantum yield of 0.67.
The maximum absorption wavelength in toluene (10^−5 mol/L) was 609 nm (molar extinction coefficient ε=3.85×10^5 M^−1 cm^−1) with a high fluorescence quantum yield of 0.89.

[2] = Toxicity evaluation (Example 9)
Description: (§1) 3,4,5-Tris(hexaethylene glycol) substituted 6,14-dimesityldibenzo[hi,st]ovalene was prepared analogous to example 4 and evaluated concerning its toxicity.

[3] = type: physicochemical
Description: as §1

[4] = STED imaging, stability embedded in polystyrene and in air (Example 12); type: physicochemical; details: high STED beam power, 3D STED imaging of more than one hour
Description: Different measurements were performed with 6,14-dimesityldibenzo[hi,st]ovalene being embedded in a polystyrene matrix and with 6,14-dimesityldibenzo[hi,st]ovalene in air. A Leica SP8 microscopy was used for the microscopy with an excitation laser wavelength of 561 nm and depletion (STED) laser wavelength of 775 nm.
The prepared glass coverslips were taped to a slide and kept in dark at room temperature until use.
A 15-months old sample of 6,14-dimesityldibenzo[hi,st]ovalene embedded in polystyrene as well as a freshly prepared sample of 6,14-dimesityldibenzo[hi,st]ovalene embedded in polystyrene were analyzed by STED.
6,14-dimesityldibenzo[hi,st]ovalene powder was dispersed in toluene at room temperature to a concentration of 10^−5 mol/L and was then further diluted to the needed concentration of e.g. 10^−7 mol/L. A gridded glass coverslip (#1.5) purchased from Ibidi GmbH in Martinsried, Germany which have microscopic/nano-structures was cleaned by oxygen-plasma cleaner (250 W, 5 minutes). 8 μl 10^−7 mol/L solution were put on top of the micro/nano-structure sample. After a few minutes, when all of the toluene was volatilized completely, the prepared sample was put on the microscope for 3D STED imaging.
The STED was performed with the following microscopy settings of the Leica SP8 microscope: […]

living cells [5] = experiment: Uptake into living cells, spinning disk confocal microscopy; type: cell-based
Description: (§2) More specifically, the cytotoxicity of DBOV-Mes-OTEG was tested in living cells. […] Moreover, the uptake of DBOV-Mes-OTEG into living cells was investigated by imaging 21 hours with low laser intensity at the spinning disk confocal microscopy (Visitron).

fixed cells = experiment: Blinking-mode imaging of fixed cell samples in PBS without special imaging buffer; type: cell-based
Excerpt: After the aforementioned live cell imaging, the samples were fixed and imaged in phosphate-buffered saline (PBS) without special imaging buffer.

living cells [6] = experiment: Cytotoxicity test in living cells (Example 13, FIG. 8); type: cell-based; details: concentration of 1 μM
Description: as §2

Solubility in water = type: physicochemical; details: room temperature
Description: In accordance with the present invention, the solubility and particularly the solubility of the compound having the general formula (1) or the general formula (2) in water at 23° C. is measured as follows: 1 mg sample is weighed into an Erlenmeyer flask and is then mixed homogeneously with 4 ml of water with a spatula at 23° C. The remaining substance on the spatula is stripped off with a magnetic stirrer bar, which is then added to the Erlenmeyer flask. While stirring with a magnetic stirrer, water is added dropwise with a burette until the solution in the Erlenmeyer flask becomes clear at 23° C. After that, the solubility of compound in water is calculated by calculating the ratio of weighed compound divided by the volume of added water and then by recalculating this ratio to 1 l of water.

Row | Compound | fluorescence quantum yield [1] | maximum absorption wavelength [1] [nm] | molar extinction coefficient ε [1] [M⁻¹ cm⁻¹] | width of absorption and emission spectra [1] | also measured
1 | CCCCCCCCCCCCOc1cc(-c2c3cccc4c5ccc6ccc7c(-c8cc(OCCCCCCCCCCCC)c(OCCCCCCCCCCCC)c(OCCCCCCCCCCCC)c8)c8cccc9c%10ccc%11ccc2c2c%11c%10c%10c(c89)c7c6c5c%10c2c34)cc(OCCCCCCCCCCCC)c1OCCCCCCCCCCCC [Example 6, 6,14-bis[3,4,5-tris(dodecoxyl)-phenyl]dibenzo[hi,st]ovalene] | 0.89 | 609 | 385000 | – | –
2 | 3,4,5-Tris(hexaethylene glycol) substituted 6,14-dimesityldibenzo[hi,st]ovalene | – | – | – | – | concentration up to which the compound is non-toxic [2]: ≤ 5 µM; solubility in DMSO [3]: good solubility
3 | CCCCCCn1c(=O)c2c3ccc4c(-c5c(C)cc(C)cc5C)c5ccc6cc7c8c(=O)n(CCCCCC)c(=O)c8c8ccc9c(-c%10c(C)cc(C)cc%10C)c%10ccc%11cc(c2c1=O)c1c3c4c2c5c6c3c7c8c9c4c%10c%11c1c2c43 [Example 8, N-hexyl fumaric acid imide group substituted 6,14-dimesityldibenzo[hi,st]ovalene] | – | – | – | narrow absorption spectrum as well as a narrow emission spectrum | –
4 | Cc1cccc(C)c1-c1c2cccc3c4ccc5ccc6c(-c7c(C)cccc7C)c7cccc8c9ccc%10ccc1c1c%10c9c9c(c78)c6c5c4c9c1c23 [Example 2, 6,14-bis(dimethylphenyl)dibenzo[hi,st]ovalene] | 0.85 | 609 | 283000 | narrow absorption spectrum as well as a narrow emission spectrum | –
5 | 6,14-diphenyldibenzo[hi,st]ovalene [Example 7] | – | – | – | narrow absorption spectrum as well as a narrow emission spectrum | –
6 | Cc1cc(C)c(-c2c3cccc4c5ccc6ccc7c(-c8c(C)cc(C)cc8C)c8cccc9c%10ccc%11ccc2c2c%11c%10c%10c(c89)c7c6c5c%10c2c34)c(C)c1 [DBOV-Mes, 6,14-dimesityldibenzo[hi,st]ovalene] | – | – | – | – | stability and brightness under STED beam [4]: very stable and still very bright
7 | COCCOCCOCCOCCOc1cc(-c2ccc3cc4cc5c(-c6c(C)cc(C)cc6C)cc6cc7c(-c8cc(OCCOCCOCCOCCOC)c(OCCOCCOCCOCCOC)c(OCCOCCOCCOCCOC)c8)ccc8cc9cc%10c(-c%11c(C)cc(C)cc%11C)cc%11cc2c3c2c%11c%10c3c9c(c87)c6c5c3c42)cc(OCCOCCOCCOCCOC)c1OCCOCCOCCOCCOC [Example 4, 3,11-bis(3,4,5-tris(2,5,8,11-tetraoxatridecan-13-yloxy)phenyl)-6,14-dimesityldibenzo[hi,st]ovalene] | – | – | – | – | location of compound in living cells (living cells [5]; after 21 hours incubation): in the nucleus and nuclear membrane; location of compound in living cells (living cells [5]; at the beginning of the incubation): taken into the cytoplasm; decrease of blinking signals (fixed cells; continuous exposure, high laser intensity 10 kW/cm^2 for 90 min): no significant decrease; blinking signals at low laser intensity (fixed cells; low laser intensity of 240 W/cm^2): blinking signals could also be imaged; toxicity to cells (living cells [6]): does not show any significant toxicity; solubility in water (Solubility in water): 100 µg/mL (≈ 47.7 µM)
8 | CC(C)[Si](C#Cc1c2cccc3c4ccc5ccc6c(C#C[Si](C(C)C)(C(C)C)C(C)C)c7cccc8c9ccc%10ccc1c1c%10c9c9c(c78)c6c5c4c9c1c23)(C(C)C)C(C)C [Example 5, 6,14-di(triisopropylsilylethynyl) dibenzo[hi,st]ovalene] | 0.67 | 647 | 61511 | narrow absorption spectrum as well as a narrow emission spectrum | –
9 | CCCCCCCCCCCCc1c2cccc3c4ccc5ccc6c(CCCCCCCCCCCC)c7cccc8c9ccc%10ccc1c1c%10c9c9c(c78)c6c5c4c9c1c23 [Example 1, 6,14-didodecyldibenzo[hi,st]ovalene] | 0.85 | 611 | 203000 | – | melting point: > 400 °C
